Assay results taken from ChEMBL document CHEMBL4507275, “Data for DCP probe BI-2545” (2021).

Columns and labels:
[1] = target: Cannabinoid receptor 1 (Homo sapiens) (UniProt P21554); assay: CB1/CENTR/H Cerep selectivity data (BI); details: Compound concentration 10.0 uM
[2] = target: T1, 5-hydroxytryptamine receptor 3A (Homo sapiens) (UniProt P46098); assay: 5HT3/H Cerep selectivity data (BI); details: Compound concentration 10.0 uM
T1 sequence (whole entry): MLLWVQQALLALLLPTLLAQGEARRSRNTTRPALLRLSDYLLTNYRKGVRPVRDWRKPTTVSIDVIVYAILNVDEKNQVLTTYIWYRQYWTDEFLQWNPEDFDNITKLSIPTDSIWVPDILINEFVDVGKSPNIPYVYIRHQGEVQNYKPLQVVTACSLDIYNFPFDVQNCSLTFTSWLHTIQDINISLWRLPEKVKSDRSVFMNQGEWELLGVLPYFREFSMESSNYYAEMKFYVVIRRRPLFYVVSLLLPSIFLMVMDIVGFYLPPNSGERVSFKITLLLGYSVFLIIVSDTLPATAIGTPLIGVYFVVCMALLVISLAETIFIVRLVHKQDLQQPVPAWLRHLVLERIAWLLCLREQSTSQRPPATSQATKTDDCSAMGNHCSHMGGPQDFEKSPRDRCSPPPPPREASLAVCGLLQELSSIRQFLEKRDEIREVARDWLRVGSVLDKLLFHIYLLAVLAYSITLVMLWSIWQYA

[3] = target: Prostaglandin G/H synthase 2 (Homo sapiens) (UniProt P35354); assay: COX-2 Cerep selectivity data (BI); details: Compound concentration 10.0 uM
[4] = target: 3',5'-cyclic-AMP phosphodiesterase 4D (Homo sapiens) (UniProt Q08499); assay: PDE4D2 Cerep selectivity data (BI); details: Compound concentration 10.0 uM
[5] = target: Sodium-dependent dopamine transporter (Homo sapiens) (UniProt Q01959); details: Compound concentration 10.0 uM
[6] = target: Muscarinic acetylcholine receptor M1 (Homo sapiens) (UniProt P11229); assay: M1/H Cerep selectivity data (BI); details: Compound concentration 10.0 uM
[7] = target: Sodium-dependent noradrenaline transporter (Homo sapiens) (UniProt P23975); assay: NEUP/H Cerep selectivity data (BI); details: Compound concentration 10.0 uM
[8] = target: Histamine H2 receptor (Homo sapiens) (UniProt P25021); assay: H2/APT/HS Cerep selectivity data (BI); details: filed as antagonist, Compound concentration 10.0 uM
[9] = target: Kappa-type opioid receptor (Rattus norvegicus) (UniProt P34975); assay: KAPPA/R Cerep selectivity data (BI); details: Compound concentration 10.0 uM
[10] = target: Gamma-aminobutyric acid receptor subunit alpha-1 (Rattus norvegicus) (UniProt P62813); assay: BZD/CENTR/R Cerep selectivity data (BI); details: Compound concentration 10.0 uM
[11] = target: Neuronal acetylcholine receptor; alpha4/beta2 (Homo sapiens) (UniProt P17787+P43681); assay: N_NEURO_A4B2 Cerep selectivity data (BI); type: protein-complex assay; details: filed as agonist, Compound concentration 10.0 uM
[12] = target: Angiotensin-converting enzyme (Homo sapiens) (UniProt P12821); assay: ACE(HU_AMTCH400) Cerep selectivity data (BI); details: Compound concentration 10.0 uM
[13] = target: Mu-type opioid receptor (Homo sapiens) (UniProt P35372); assay: MU/H Cerep selectivity data (BI); details: Compound concentration 10.0 uM
[14] = target: Beta-2 adrenergic receptor (Homo sapiens) (UniProt P07550); assay: BETA2/HUM Cerep selectivity data (BI); details: filed as antagonist, Compound concentration 10.0 uM
[15] = target: T2, Alpha-2A adrenergic receptor (Homo sapiens) (UniProt P08913); assay: ALPHA2A/HU Cerep selectivity data (BI); details: Compound concentration 10.0 uM
T2 sequence (whole entry): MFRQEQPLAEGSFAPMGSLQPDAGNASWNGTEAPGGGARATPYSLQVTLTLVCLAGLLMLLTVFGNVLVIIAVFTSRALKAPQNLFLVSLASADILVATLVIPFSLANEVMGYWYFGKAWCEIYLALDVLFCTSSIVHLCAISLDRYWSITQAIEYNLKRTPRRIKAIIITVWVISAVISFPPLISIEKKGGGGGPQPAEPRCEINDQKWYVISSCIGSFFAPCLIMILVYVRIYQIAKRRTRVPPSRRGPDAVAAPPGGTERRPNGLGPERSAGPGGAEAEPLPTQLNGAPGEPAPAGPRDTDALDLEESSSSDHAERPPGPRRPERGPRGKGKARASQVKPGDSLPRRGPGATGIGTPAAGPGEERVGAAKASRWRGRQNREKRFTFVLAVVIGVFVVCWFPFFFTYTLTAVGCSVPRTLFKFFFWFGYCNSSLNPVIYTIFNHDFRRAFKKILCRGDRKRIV

[16] = target: T3, 5-hydroxytryptamine receptor 1A (Homo sapiens) (UniProt P08908); assay: 5HT1A/H Cerep selectivity data (BI); details: Compound concentration 10.0 uM
T3 sequence (whole entry): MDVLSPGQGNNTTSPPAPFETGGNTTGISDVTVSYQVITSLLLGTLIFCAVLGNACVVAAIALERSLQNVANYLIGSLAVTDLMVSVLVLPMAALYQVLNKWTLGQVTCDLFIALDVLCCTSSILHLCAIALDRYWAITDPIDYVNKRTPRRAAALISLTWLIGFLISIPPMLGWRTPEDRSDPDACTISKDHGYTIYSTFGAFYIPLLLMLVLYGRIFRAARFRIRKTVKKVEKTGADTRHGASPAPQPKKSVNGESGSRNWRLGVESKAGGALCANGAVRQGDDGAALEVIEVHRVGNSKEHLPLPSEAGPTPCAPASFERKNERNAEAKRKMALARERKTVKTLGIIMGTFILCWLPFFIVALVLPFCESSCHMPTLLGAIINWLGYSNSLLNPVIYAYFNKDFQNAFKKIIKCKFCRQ

[17] = target: Beta-2 adrenergic receptor (Homo sapiens) (UniProt P07550); details: Compound concentration 10.0 uM

Chain of Beta-2 adrenergic receptor (Homo sapiens) (P07550 whole entry, looked up): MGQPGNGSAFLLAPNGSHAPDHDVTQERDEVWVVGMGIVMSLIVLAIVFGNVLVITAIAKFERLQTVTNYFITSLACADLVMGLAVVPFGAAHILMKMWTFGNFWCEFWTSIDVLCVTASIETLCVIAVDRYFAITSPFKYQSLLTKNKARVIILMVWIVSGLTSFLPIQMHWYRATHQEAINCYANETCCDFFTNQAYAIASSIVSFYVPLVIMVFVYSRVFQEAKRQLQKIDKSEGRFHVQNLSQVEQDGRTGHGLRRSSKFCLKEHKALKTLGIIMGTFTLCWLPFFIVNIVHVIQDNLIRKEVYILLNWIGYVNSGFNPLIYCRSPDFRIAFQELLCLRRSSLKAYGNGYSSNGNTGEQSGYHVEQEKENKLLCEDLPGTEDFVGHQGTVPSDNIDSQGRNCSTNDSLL
Chain of Histamine H2 receptor (Homo sapiens) (P25021 whole entry): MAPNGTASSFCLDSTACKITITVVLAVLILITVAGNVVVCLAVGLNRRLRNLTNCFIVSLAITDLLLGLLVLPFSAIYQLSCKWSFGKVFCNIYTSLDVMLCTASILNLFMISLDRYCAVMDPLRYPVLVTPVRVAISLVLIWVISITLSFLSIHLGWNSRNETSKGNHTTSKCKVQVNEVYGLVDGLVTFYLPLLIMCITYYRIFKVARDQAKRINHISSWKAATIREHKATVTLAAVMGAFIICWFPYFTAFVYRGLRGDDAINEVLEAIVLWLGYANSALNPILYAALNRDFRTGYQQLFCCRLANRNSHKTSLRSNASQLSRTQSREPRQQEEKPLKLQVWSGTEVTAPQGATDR
Chain of Prostaglandin G/H synthase 2 (Homo sapiens) (P35354 whole entry): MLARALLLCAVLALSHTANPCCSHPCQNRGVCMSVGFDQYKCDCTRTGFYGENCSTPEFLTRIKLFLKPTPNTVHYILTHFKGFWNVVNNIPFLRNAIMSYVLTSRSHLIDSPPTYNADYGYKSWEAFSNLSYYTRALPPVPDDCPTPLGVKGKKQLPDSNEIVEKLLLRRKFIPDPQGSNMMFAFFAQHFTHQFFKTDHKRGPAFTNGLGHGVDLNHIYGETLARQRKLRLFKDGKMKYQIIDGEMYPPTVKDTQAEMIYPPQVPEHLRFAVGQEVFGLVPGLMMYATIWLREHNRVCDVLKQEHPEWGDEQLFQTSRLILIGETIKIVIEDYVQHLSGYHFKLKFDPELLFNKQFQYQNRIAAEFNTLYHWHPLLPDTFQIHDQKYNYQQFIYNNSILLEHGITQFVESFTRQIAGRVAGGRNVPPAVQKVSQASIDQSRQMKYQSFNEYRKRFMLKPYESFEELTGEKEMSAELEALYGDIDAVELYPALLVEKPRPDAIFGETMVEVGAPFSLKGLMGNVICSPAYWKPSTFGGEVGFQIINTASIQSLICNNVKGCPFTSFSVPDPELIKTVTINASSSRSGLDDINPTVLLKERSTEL
Chain of Gamma-aminobutyric acid receptor subunit alpha-1 (Rattus norvegicus) (P62813 whole entry): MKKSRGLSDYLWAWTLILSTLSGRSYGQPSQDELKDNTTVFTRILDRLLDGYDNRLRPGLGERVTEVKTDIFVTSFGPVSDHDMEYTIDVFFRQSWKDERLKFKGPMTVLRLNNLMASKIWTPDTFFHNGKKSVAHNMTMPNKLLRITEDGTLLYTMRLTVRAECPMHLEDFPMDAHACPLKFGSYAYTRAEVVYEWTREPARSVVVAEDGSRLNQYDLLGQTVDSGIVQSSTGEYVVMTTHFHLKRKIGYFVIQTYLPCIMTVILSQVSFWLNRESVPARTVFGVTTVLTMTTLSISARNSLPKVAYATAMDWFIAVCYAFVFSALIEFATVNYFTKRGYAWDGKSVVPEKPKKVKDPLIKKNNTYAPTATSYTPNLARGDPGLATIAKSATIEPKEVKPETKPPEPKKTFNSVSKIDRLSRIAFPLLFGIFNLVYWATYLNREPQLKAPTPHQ
Chain of Sodium-dependent noradrenaline transporter (Homo sapiens) (P23975 whole entry): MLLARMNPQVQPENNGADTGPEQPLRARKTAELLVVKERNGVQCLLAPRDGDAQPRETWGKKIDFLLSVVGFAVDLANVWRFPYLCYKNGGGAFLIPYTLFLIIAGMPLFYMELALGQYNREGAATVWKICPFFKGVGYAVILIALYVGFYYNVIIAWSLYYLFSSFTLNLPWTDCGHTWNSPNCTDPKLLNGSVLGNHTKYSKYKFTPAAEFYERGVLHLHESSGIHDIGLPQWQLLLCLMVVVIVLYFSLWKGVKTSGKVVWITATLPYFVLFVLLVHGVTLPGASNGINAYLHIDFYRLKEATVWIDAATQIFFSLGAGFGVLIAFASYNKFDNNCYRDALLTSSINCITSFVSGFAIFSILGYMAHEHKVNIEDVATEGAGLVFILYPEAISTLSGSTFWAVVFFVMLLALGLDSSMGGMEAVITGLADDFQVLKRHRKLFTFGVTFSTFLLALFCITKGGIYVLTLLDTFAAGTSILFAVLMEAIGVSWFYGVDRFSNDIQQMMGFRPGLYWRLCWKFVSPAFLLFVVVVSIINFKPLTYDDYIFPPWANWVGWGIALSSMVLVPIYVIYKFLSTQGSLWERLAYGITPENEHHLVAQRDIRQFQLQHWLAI
Chain of Muscarinic acetylcholine receptor M1 (Homo sapiens) (P11229 whole entry): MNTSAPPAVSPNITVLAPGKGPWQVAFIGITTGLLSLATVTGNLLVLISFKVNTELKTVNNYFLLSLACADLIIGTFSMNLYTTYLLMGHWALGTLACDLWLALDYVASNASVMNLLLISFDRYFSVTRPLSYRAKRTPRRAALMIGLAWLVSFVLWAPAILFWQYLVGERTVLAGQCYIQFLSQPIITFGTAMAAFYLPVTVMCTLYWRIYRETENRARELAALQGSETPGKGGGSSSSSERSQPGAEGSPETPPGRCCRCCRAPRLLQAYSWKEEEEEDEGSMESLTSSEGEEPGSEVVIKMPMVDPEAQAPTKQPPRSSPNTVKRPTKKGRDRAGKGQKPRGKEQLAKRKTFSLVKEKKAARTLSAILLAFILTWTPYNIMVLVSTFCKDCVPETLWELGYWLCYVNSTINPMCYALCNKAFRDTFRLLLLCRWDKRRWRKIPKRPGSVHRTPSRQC
Chain of Kappa-type opioid receptor (Rattus norvegicus) (P34975 whole entry): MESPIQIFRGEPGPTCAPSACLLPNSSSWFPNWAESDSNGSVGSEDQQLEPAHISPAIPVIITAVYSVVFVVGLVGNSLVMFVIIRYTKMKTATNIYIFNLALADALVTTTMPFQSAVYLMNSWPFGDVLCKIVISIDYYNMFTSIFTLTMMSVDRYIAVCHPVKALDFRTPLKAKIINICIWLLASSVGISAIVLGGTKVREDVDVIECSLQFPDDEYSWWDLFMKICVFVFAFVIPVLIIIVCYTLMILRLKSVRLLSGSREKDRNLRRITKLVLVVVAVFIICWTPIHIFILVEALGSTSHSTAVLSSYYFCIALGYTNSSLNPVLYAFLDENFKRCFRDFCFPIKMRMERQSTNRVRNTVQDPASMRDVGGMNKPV
Chain of Cannabinoid receptor 1 (Homo sapiens) (P21554 whole entry): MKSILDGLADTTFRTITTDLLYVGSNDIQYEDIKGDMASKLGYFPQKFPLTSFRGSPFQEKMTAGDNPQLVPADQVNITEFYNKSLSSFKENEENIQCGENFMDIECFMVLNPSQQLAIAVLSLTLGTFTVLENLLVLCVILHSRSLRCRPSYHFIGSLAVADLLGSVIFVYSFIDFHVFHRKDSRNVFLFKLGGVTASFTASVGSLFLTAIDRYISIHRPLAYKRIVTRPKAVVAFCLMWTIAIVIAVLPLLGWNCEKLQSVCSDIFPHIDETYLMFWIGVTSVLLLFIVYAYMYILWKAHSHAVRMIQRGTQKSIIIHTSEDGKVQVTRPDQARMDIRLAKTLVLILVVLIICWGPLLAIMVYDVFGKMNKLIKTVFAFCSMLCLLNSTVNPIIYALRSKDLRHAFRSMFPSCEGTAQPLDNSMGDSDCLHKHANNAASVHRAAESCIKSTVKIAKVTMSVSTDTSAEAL
Chain of 3',5'-cyclic-AMP phosphodiesterase 4D (Homo sapiens) (Q08499 whole entry): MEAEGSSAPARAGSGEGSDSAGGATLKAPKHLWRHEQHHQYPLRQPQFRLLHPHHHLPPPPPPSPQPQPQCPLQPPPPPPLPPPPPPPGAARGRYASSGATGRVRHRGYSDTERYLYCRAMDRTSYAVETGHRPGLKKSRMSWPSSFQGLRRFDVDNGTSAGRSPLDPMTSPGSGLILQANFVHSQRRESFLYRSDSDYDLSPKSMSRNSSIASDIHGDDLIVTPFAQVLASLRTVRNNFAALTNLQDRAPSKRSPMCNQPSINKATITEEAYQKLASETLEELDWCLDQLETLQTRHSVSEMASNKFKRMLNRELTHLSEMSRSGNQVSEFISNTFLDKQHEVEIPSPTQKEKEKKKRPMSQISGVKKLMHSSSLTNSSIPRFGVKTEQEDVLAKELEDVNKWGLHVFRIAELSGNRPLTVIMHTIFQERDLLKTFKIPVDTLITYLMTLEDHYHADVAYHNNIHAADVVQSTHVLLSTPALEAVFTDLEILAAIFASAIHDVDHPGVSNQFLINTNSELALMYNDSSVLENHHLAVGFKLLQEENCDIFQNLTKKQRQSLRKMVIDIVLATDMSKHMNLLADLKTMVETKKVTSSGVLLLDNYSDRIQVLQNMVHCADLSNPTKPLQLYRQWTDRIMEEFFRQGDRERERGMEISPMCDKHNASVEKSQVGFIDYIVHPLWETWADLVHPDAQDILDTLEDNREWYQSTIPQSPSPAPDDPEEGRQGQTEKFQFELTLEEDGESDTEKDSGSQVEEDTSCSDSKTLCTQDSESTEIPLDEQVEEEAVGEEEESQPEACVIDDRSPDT
Chain of Mu-type opioid receptor (Homo sapiens) (P35372 whole entry): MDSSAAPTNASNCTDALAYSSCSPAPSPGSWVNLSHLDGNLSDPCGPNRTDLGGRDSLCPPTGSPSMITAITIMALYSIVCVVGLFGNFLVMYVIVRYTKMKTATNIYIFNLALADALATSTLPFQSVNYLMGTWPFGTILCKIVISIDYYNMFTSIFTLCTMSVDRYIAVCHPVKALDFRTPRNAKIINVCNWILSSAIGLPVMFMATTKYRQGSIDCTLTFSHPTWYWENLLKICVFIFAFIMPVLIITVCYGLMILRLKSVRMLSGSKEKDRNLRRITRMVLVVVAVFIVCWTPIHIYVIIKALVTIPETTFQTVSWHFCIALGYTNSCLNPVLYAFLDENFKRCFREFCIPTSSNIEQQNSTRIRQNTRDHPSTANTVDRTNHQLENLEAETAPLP

Work on O=C(NC[C@@H]1[C@H]2CN(C(=O)OCc3cc(C(F)(F)F)cc(C(F)(F)F)c3)C[C@@H]12)c1ccc2[nH]nnc2c1 [BI 2545] yielded a residual activity [1] of 95%, a residual activity [2] of 94% and a residual activity [3] of 81%. The residual activity [4] was 98%, the inhibition [5] was -2.65% and the residual activity [6] was 97%. The residual activity [7] was 39%, the residual activity [8] was 110% and the residual activity [9] was 68%. For the same compound, the residual activity [10] was 136%, the residual activity [11] was 111% and the residual activity [12] was 109%. For the same compound, the residual activity [13] was 67%, the residual activity [14] was 96% and the residual activity [15] was 86%. It also gave a residual activity [16] of 83%.

In the case of Cc1nccc(COC(=O)N2C[C@@H]3[C@@H](CNC(=O)c4ccc5[nH]nnc5c4)[C@@H]3C2)n1 [BI 3017], the inhibition [17] is reported as -9.93%.
